Reference: US12535460B2, “Small molecule detection in normal ionic strength buffers” (ARIZONA BOARD OF REGENTS ON BEHALF OF ARIZONA STATE …, priority 2020, dated 2026)

Experiments:
[1] = test system: empty virion K082 (no GPCR displayed); experiment: CSOD negative control with empty virion K082 modified fiber; type: binding, HSV-1
From the text: Virions are functionalized to fiber surface via epoxy coupling, and the binding of respective small molecule antagonists B2 antagonist and Tocrifluor are studied in 1×PBS. First, the virions modified fiber tip was dipped into one well filled with 1×PBS buffer to establish a baseline. Subsequently, the fiber tip was switched from the buffer well to a sample well containing ligands to measure the binding or association process. At last, the fiber tip was switched back to the buffer well for dissociation studies. […] Solid lines are global fitting of the data with a first-order kinetic model. […] For both binding pairs, when no ligand is introduced, the baseline level is within the noise level, showing that the oscillation amplitude change was caused by the specific binding between the ligands and their corresponding receptors.

GPR55 [2] = target: T1, GPR55 (Homo sapiens, UniProt Q9Y2T6); experiment: VirD oscillator method, Tocrifluor/GPR55 pair in diluted buffer; type: binding
From the text: To study the impact of buffer ionic strength on the binding kinetics, the binding results in 1×PBS were compared with results measured in a more diluted buffer solution (40 times diluted 1×PBS) for the same experiments performed with ADRB2-B2 antagonist pair. The solid lines in FIG. 7 show the global fitting of the data with first-order kinetic model. […] Both of the GPCR binding pairs measured involve electrostatic interactions, since the reported binding site of GPR55 is hydrophilic, and ADRB2 is partially hydrophilic. Thus, the affinity measured under normal and diluted PBS are different. […] Due at least in part to the strong ionic screening effect in normal ionic strength buffer, the signal intensity is reduced to about half of the measurement in low ionic strength buffer while the noise remains at a similar level.
Target sequence in this assay (Q9Y2T6 whole entry, species assumed): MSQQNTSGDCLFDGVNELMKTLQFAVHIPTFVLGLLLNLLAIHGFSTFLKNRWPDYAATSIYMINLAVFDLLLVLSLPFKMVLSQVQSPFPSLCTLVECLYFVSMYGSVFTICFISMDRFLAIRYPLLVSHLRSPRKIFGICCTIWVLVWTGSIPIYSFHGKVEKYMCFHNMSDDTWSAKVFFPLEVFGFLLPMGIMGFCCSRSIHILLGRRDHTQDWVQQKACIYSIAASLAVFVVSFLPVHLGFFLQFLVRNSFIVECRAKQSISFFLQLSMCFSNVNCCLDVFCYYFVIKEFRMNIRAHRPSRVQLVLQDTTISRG

GPR55 [3] = target: T1, GPR55; experiment: CSOD binding kinetics of a small molecule ligand to virion-displayed GPR55; set-up: made in house; host or cells: recombinant HSV-1 virions (VirD), made by collaborators at Johns Hopkins University; conditions: 1×PBS, global fitting with first-order kinetics
From the text: An inverted microscope (Olympus IX-70 with 40× objective) with a CCD camera (Pike F-032, Allied Vision) was used for recording 14-bit grayscale image sequences at a frame rate of 106.5. A customized plate with 2 PDMS wells shown in FIGS. 1A and 1B was mounted on a motorized microscope stage (MAC 6000 modular automation controller, Ludl Electronic Products LTD.). Two steel electrodes (1 cm×3 cm) were placed 1 cm apart inside the well, then blocked with agarose electrophoresis gel. A green LED (505 nm, 400 mW, Thorlabs M505L3) light was coupled into the fiber via a focusing lens. Fiber is dipped into analyte solution between the electrophoresis gels. To control the fiber and move the fiber between the 2 wells, the fiber was clamped to a motorized arm (A-LSQ075B, Zaber). A sinusoidal potential was applied with a function generator (33521A, Agilent). A USB data acquisition card (USB-6229, National Instruments) was used to record voltage and current.
The tip (about 1 cm) of an optical fiber thread (about 20 cm) was first soaked in acetone for 1 minute and then rinsed with DI water and dried. The polymer coating layer on the optical fiber was then stripped off with an optical fiber stripper. The bare fiber was etched by soaking it in 47% hydrofluoric acid for 29 minutes and 15 seconds for a diameter of approximately 15 μm. The etched fiber was later rinsed with DI water to wash off the hydrofluoric acid and then blown dry with nitrogen. The tip was cut to about 9 mm long. Before functionalization, the optical fiber was cleaned with oxygen plasma for 3 minutes.
The etched fiber was soaked in (3-glycidyloxypropyl)trimethoxysilane (epoxy) solution (2.5% volume percentage of epoxy in isopropanol) for 1 hour for surface functionalization. The fiber was then rinsed with PBS buffer. […]
By fitting the kinetic curves at different concentrations globally with first-order kinetics, the association rate constant (ka), dissociation rate constant (kd) as well as equilibrium constant (KD) for both binding pairs are calculated.
Target sequence in this assay (Q9Y2T6 whole entry): as the sequence (Q9Y2T6 whole entry, species assumed) above

## Tocrifluor
[1]
  binding to empty virion K082: binds to neither
GPR55 [2]
  Kd: 160 ± 50 nM
GPR55 [3]
  association rate constant ka: 9200 M⁻¹ s⁻¹
  dissociation rate constant kd: 0.00081 s⁻¹
GPR55 [3]; read-out: equilibrium constant KD
  Kd: 89 nM
